Measurements as given in patent US8362249B2, “CXCR3 receptor antagonists” (Boehringer Ingelheim International GmbH, priority 2009, dated 2013).

These molecules were tested against CXCR3 (Macaca fascicularis, UniProt A0A2K5UV19) (assay: functional cellular assay measuring calcium flux in CXCR3 transfected cells (block of CXCR3/IP-10 interaction)). Conditions: IP-10 induced intracellular calcium flux; Cyno-CHO cells stably expressing recombinant CXCR3 and G-alpha-16.
Chain of CXCR3 (A0A2K5UV19 entry or part of it): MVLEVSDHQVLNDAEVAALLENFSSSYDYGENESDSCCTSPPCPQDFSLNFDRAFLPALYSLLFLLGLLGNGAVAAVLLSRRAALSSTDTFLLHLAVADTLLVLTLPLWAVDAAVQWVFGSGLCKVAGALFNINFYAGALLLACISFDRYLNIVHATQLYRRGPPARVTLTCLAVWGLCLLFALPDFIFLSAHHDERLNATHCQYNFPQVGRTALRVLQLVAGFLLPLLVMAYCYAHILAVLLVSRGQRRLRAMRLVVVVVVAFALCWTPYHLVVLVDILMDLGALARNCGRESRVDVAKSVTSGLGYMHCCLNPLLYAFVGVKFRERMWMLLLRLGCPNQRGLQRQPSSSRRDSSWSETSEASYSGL
Assay type: cell-based
Experimental: Compounds are assessed for the ability to block the interaction of CXCR3 and IP-10 in a functional cellular assay measuring calcium flux in CXCR3 transfected cells.
Cyno-CHO cells, stably expressing recombinant CXCR3 and G-alpha-16 are grown in F12 medium (Mediatech #45000-360) supplemented with 10% (V/V) FBS (Mediatech #35-01500), 1% Geneticin (Invitrogen #10131-027) and 0.2% Zeocin (Invitrogen #R250-05). The cells are spun down and re-suspended in growth media to a concentration of 4.8 E5 cells/mL. 25 microL of cell suspension is added to each well of a BD-384-well TC treated plate, providing 12,000 cells/well. The plate is incubated at 37° C./5% CO2 overnight. On the day of the assay, the plates are removed, the media is flicked out and 25 microL of Ca-4 dye in assay buffer (HBSS, 10 mM HEPES ph 7.4), containing 2 mM probenacid is added to each well. The cell assay plates are then incubated at 37° C./5% CO2 for one hour.
Test compounds are dissolved in DMSO and diluted to 1.045 mM in DMSO. Just prior to assay, 2.75 microL of appropriately diluted test compound are added to each well of a 384 well plate containing 45 microL of HBSS buffer. After mixing, 5 microL of diluted compound are added to each well of the cell assay plate for a final assay concentration of 10 microM. The plate is incubated at room temperature for 15 min. 10 microL of IP-10 stock solution in HBSS (4× EC80 concentration) are added to each well of the cell assay plate except those cells reserved as blank wells containing buffer only. Intracellular calcium flux is recorded on the HAMAMTSU FDSS6000, using excitation at 480 nm and emission at 540 nm. Data are analyzed using Activity Base software.
In general, the preferred potency range (IC50) of compounds in the above assay is between 1 nM to 3 μM, and the most preferred potency range is 1 nM to 20 nM.
Work on Cc1cc(C)n(CC(=O)N2CCN(c3ccccc3C(=O)Nc3cnc4c(cnn4C(C)C)c3)CC2)n1 [2-{4-[2-(3,5-Dimethyl-pyrazol-1-yl)-acetyl]-piperazin-1-yl}-N-(1-isopropyl-1H-pyrazolo[3,4-b]pyridin-5-yl)-benzamide] yielded an IC50 of 11.5 nM. Work on Cc1cc(C)n(CC(=O)N2CCN(c3ccccc3C(=O)Nc3ccccc3F)CC2)n1 [2-{4-[2-(3,5-Dimethyl-pyrazol-1-yl)-acetyl]-piperazin-1-yl}-N-(2-fluoro-phenyl)-benzamide] yielded an IC50 of 5.5 nM. For COc1cc(NC(=O)c2ccccc2N2CCN(C(=O)Cn3nc(C)cc3C)CC2)ccn1 [2-{4-[2-(3,5-Dimethyl-pyrazol-1-yl)-acetyl]-piperazin-1-yl}-N-(2-methoxy-pyridin-4-yl)-benzamide], the IC50 was 8.5 nM. Cc1cc(C)n(CC(=O)N2CCN(c3ccccc3C(=O)Nc3ccc4oc(C)nc4c3)CC2)n1 [2-{4-[2-(3,5-Dimethyl-pyrazol-1-yl)-acetyl]-piperazin-1-yl}-N-(2-methyl-benzooxazol-5-yl)-benzamide] gave an IC50 of 17.5 nM. Cc1cc(C)n(CC(=O)N2CCN(c3ccccc3C(=O)Nc3ccc4nc(C)sc4c3)CC2)n1 [2-{4-[2-(3,5-Dimethyl-pyrazol-1-yl)-acetyl]-piperazin-1-yl}-N-(2-methyl-benzothiazol-6-yl)-benzamide] showed an IC50 of 13 nM. With Cc1cc(NC(=O)c2ccccc2N2CCN(C(=O)Cn3nc(C)cc3C)CC2)ccn1 [2-{4-[2-(3,5-Dimethyl-pyrazol-1-yl)-acetyl]-piperazin-1-yl}-N-(2-methyl-pyridin-4-yl)-benzamide] the IC50 was 12.5 nM. Molecule Cc1cc(C)n(CC(=O)N2CCN(c3ccccc3C(=O)Nc3cnc(-c4ccccc4)nc3)CC2)n1 [2-{4-[2-(3,5-Dimethyl-pyrazol-1-yl)-acetyl]-piperazin-1-yl}-N-(2-phenyl-pyrimidin-5-yl)-benzamide] has an IC50 of 10.5 nM. Work on Cc1cc(C)n(CC(=O)N2CCN(c3ccccc3C(=O)Nc3ccnc(C(F)(F)F)c3)CC2)n1 [2-{4-[2-(3,5-Dimethyl-pyrazol-1-yl)-acetyl]-piperazin-1-yl}-N-(2-trifluoromethyl-pyridin-4-yl)-benzamide] yielded an IC50 of 12 nM. Cc1cc(C)n(CC(=O)N2CCN(c3ccccc3C(=O)Nc3cnc(C(F)(F)F)nc3)CC2)n1 [2-{4-[2-(3,5-Dimethyl-pyrazol-1-yl)-acetyl]-piperazin-1-yl}-N-(2-trifluoromethyl-pyrimidin-5-yl)-benzamide] was tested, and the IC50 was 5 nM. Work on Cc1cc(C)n(CC(=O)N2CCN(c3ccccc3C(=O)Nc3cccc(S(=O)(=O)N(C)C)c3)CC2)n1 [2-{4-[2-(3,5-Dimethyl-pyrazol-1-yl)-acetyl]-piperazin-1-yl}-N-(3-dimethylsulfamoyl-phenyl)-benzamide] yielded an IC50 of 17 nM. Molecule Cc1cc(C)n(CC(=O)N2CCN(c3ccccc3C(=O)Nc3ccncc3F)CC2)n1 [2-{4-[2-(3,5-Dimethyl-pyrazol-1-yl)-acetyl]-piperazin-1-yl}-N-(3-fluoro-pyridin-4-yl)-benzamide] has an IC50 of 19.5 nM. For Cc1cc(C)n(CC(=O)N2CCN(c3ccccc3C(=O)Nc3cccc(S(C)(=O)=O)c3)CC2)n1 [2-{4-[2-(3,5-Dimethyl-pyrazol-1-yl)-acetyl]-piperazin-1-yl}-N-(3-methanesulfonyl-phenyl)-benzamide], the IC50 was 19 nM. With COc1cccc(NC(=O)c2ccccc2N2CCN(C(=O)Cn3nc(C)cc3C)CC2)c1 [2-{4-[2-(3,5-Dimethyl-pyrazol-1-yl)-acetyl]-piperazin-1-yl}-N-(3-methoxy-phenyl)-benzamide] the IC50 was 4.3 nM. With Cc1cc(C)n(CC(=O)N2CCN(c3ccccc3C(=O)Nc3cc(-c4ccccc4)no3)CC2)n1 [2-{4-[2-(3,5-Dimethyl-pyrazol-1-yl)-acetyl]-piperazin-1-yl}-N-(3-phenyl-isoxazol-5-yl)-benzamide] the IC50 was 8.8 nM. For Cc1cc(C)n(CC(=O)N2CCN(c3ccccc3C(=O)Nc3cccc(OC(F)(F)F)c3)CC2)n1 [2-{4-[2-(3,5-Dimethyl-pyrazol-1-yl)-acetyl]-piperazin-1-yl}-N-(3-trifluoromethoxy-phenyl)-benzamide], the IC50 was 3.1 nM. Cc1cc(C)n(CC(=O)N2CCN(c3ccccc3C(=O)Nc3cc(C(F)(F)F)no3)CC2)n1 [2-{4-[2-(3,5-Dimethyl-pyrazol-1-yl)-acetyl]-piperazin-1-yl}-N-(3-trifluoromethyl-isoxazol-5-yl)-benzamide] gave an IC50 of 5.1 nM. In the case of Cc1cc(C)n(CC(=O)N2CCN(c3ccccc3C(=O)Nc3cccc(C(F)(F)F)c3)CC2)n1 [2-{4-[2-(3,5-Dimethyl-pyrazol-1-yl)-acetyl]-piperazin-1-yl}-N-(3-trifluoromethyl-phenyl)-benzamide], the IC50 is reported as 8 nM. Cc1cc(C)n(CC(=O)N2CCN(c3ccccc3C(=O)Nc3nc4c(s3)CCCC4)CC2)n1 [2-{4-[2-(3,5-Dimethyl-pyrazol-1-yl)-acetyl]-piperazin-1-yl}-N-(4,5,6,7-tetrahydro-benzothiazol-2-yl)-benzamide] showed an IC50 of 12 nM. In the case of Cc1cc(C)n(CC(=O)N2CCN(c3ccccc3C(=O)Nc3ccc(S(C)(=O)=O)cc3)CC2)n1 [2-{4-[2-(3,5-Dimethyl-pyrazol-1-yl)-acetyl]-piperazin-1-yl}-N-(4-methanesulfonyl-phenyl)-benzamide], the IC50 is reported as 8.8 nM. Molecule Cc1csc(NC(=O)c2ccccc2N2CCN(C(=O)Cn3nc(C)cc3C)CC2)n1 [2-{4-[2-(3,5-Dimethyl-pyrazol-1-yl)-acetyl]-piperazin-1-yl}-N-(4-methyl-thiazol-2-yl)-benzamide] has an IC50 of 12 nM. Cc1cc(C)n(CC(=O)N2CCN(c3ccccc3C(=O)Nc3nc(-c4ccccn4)cs3)CC2)n1 [2-{4-[2-(3,5-Dimethyl-pyrazol-1-yl)-acetyl]-piperazin-1-yl}-N-(4-pyridin-2-yl-thiazol-2-yl)-benzamide] was tested, and the IC50 was 11.5 nM. Cc1cc(C)n(CC(=O)N2CCN(c3ccccc3C(=O)Nc3nc(-c4cccnc4)cs3)CC2)n1 [2-{4-[2-(3,5-Dimethyl-pyrazol-1-yl)-acetyl]-piperazin-1-yl}-N-(4-pyridin-3-yl-thiazol-2-yl)-benzamide] was tested, and the IC50 was 20 nM. Cc1cc(C)n(CC(=O)N2CCN(c3ccccc3C(=O)Nc3nc(-c4ccncc4)cs3)CC2)n1 [2-{4-[2-(3,5-Dimethyl-pyrazol-1-yl)-acetyl]-piperazin-1-yl}-N-(4-pyridin-4-yl-thiazol-2-yl)-benzamide] was tested, and the IC50 was 13.5 nM. For Cc1cc(C)n(CC(=O)N2CCN(c3ccccc3C(=O)Nc3ccc(C(F)(F)F)cc3)CC2)n1 [2-{4-[2-(3,5-Dimethyl-pyrazol-1-yl)-acetyl]-piperazin-1-yl}-N-(4-trifluoromethyl-phenyl)-benzamide], the IC50 was 4.2 nM. Molecule Cc1cc(C)n(CC(=O)N2CCN(c3ccccc3C(=O)Nc3nc(C(F)(F)F)cs3)CC2)n1 [2-{4-[2-(3,5-Dimethyl-pyrazol-1-yl)-acetyl]-piperazin-1-yl}-N-(4-trifluoromethyl-thiazol-2-yl)-benzamide] has an IC50 of 18 nM. Cc1cc(C)n(CC(=O)N2CCN(c3ccccc3C(=O)Nc3cnc(C)c(F)c3)CC2)n1 [2-{4-[2-(3,5-Dimethyl-pyrazol-1-yl)-acetyl]-piperazin-1-yl}-N-(5-fluoro-6-methyl-pyridin-3-yl)-benzamide] was tested, and the IC50 was 14 nM. Cc1cc(C)n(CC(=O)N2CCN(c3ccccc3C(=O)Nc3cncc(F)c3)CC2)n1 [2-{4-[2-(3,5-Dimethyl-pyrazol-1-yl)-acetyl]-piperazin-1-yl}-N-(5-fluoro-pyridin-3-yl)-benzamide] gave an IC50 of 10.8 nM. In the case of Cc1cc(C)n(CC(=O)N2CCN(c3ccccc3C(=O)Nc3cncc(O)c3)CC2)n1 [2-{4-[2-(3,5-Dimethyl-pyrazol-1-yl)-acetyl]-piperazin-1-yl}-N-(5-hydroxy-pyridin-3-yl)-benzamide], the IC50 is reported as 12.5 nM. For Cc1cc(C)n(CC(=O)N2CCN(c3ccccc3C(=O)Nc3nc4c(s3)CN(C)CC4)CC2)n1 [2-{4-[2-(3,5-Dimethyl-pyrazol-1-yl)-acetyl]-piperazin-1-yl}-N-(5-methyl-4,5,6,7-tetrahydro-thiazolo[5,4-c]pyridin-2-yl)-benzamide], the IC50 was 9.7 nM. For Cc1cncc(NC(=O)c2ccccc2N2CCN(C(=O)Cn3nc(C)cc3C)CC2)c1 [2-{4-[2-(3,5-Dimethyl-pyrazol-1-yl)-acetyl]-piperazin-1-yl}-N-(5-methyl-pyridin-3-yl)-benzamide], the IC50 was 5.1 nM. Molecule Cc1cc(C)n(CC(=O)N2CCN(c3ccccc3C(=O)Nc3ncc(C)s3)CC2)n1 [2-{4-[2-(3,5-Dimethyl-pyrazol-1-yl)-acetyl]-piperazin-1-yl}-N-(5-methyl-thiazol-2-yl)-benzamide] has an IC50 of 7.3 nM. With Cc1cc(C)n(CC(=O)N2CCN(c3ccccc3C(=O)Nc3nc4ccc(S(C)(=O)=O)cc4s3)CC2)n1 [2-{4-[2-(3,5-Dimethyl-pyrazol-1-yl)-acetyl]-piperazin-1-yl}-N-(6-methanesulfonyl-benzothiazol-2-yl)-benzamide] the IC50 was 6.6 nM. Work on COc1ccc2nc(NC(=O)c3ccccc3N3CCN(C(=O)Cn4nc(C)cc4C)CC3)sc2c1 [2-{4-[2-(3,5-Dimethyl-pyrazol-1-yl)-acetyl]-piperazin-1-yl}-N-(6-methoxy-benzothiazol-2-yl)-benzamide] yielded an IC50 of 9.8 nM.
